Source: patent EP3431088A1, “MNTBAP FOR USE IN INDUCING A TRANSIENT IMMUNE TOLERANCE” (priority 2017, dated 2019)

Tests used:
rAAV1 CMV mSeap vector = assay: rAAV readministration in TA: mSeap expression and vector copy number; assay type: in vivo, C57BL/6 mice
Procedure: (§1) MnTBAP (Calbiochem, San Diego, USA or Enzo Life Sciences, Farmingdale, USA) is dissolved in 75 mM NaOH to constitute a 20 mM stock solution. MnTBAP is dissolved in the complete medium, used for in vitro treatment, containing RPMI-1640 supplemented with 10% heat-inactivated fetal calf serum, 100 U/ml penicillin/streptomycin, 2 mM glutamax and 50 µM β-mercaptoethanol β-ME). Hypertonic medium, used to block clathrin dependent endocytosis, is complete medium supplemented with 0.45 M sucrose. For in vivo treatment, the stock solution is diluted with PBS and administered at 80 mg/kg intraperitoneally daily during five days. Control animals are injected with equivalent volume of PBS.
Readministration protocol: After the initial IV injection of rAAV2/1 CMV SGCA HY vector at D0 (two hours post first IP injection of MnTBAP) the second rAAV1 injection (2.10^9 vg of rAAV2/1 CMV mSeAP) is performed 28 days later in the left TA muscle. Mice are followed up to 93 days after readministration to analyze capsid-specific humoral response and to measure circulating mSeAP from serum samples. Mice are killed 93 days after second injection of vector. […]
Genomic DNA is extracted from frozen muscles using MagNA Pure 96 Instrument (Roche). […] Results are calculated from a standard curve based on dilutions of 2 plasmids containing either the Titin or CMV sequences. […]
Determination of alkaline phosphatase concentration in immunized mice sera is performed by chemoluminescence analyzis (C. Riviere et al., Gene therapy 13, 1300. 2006). Blood samples are centrifuged for 10 min at 8000 rpm to collect sera, endogenous alkaline phosphatase is heat inactivated for 5 min at 65°C and the heat-resistant mSeAP is measured by addition of the reaction buffer and CSPD® chemiluminescent substrate, according to the manufacturer's instructions (Tropix, Applied Biosystems, Forster City, USA). Chemiluminescence is quantified using a luminometer, Enspire (Perkin Elmer, Massachusetts, USA). Expression levels are expressed as ng of mSeAP per ml of serum using a standard curve of purified human placental alkaline phosphatase.

[1] = system: transgene-specific CD8^+ and CD4^+ T-cell responses; assay: IM rAAV gene transfer: transgene-specific T-cell responses by IFN-γ ELISPOT; assay type: in vivo, C57BL/6 mice; conditions: vs PBS
Procedure: as §1
Intramuscular (IM) injection: Two hours post first intraperitoneal (IP) injection of MnTBAP, mice are anesthetized by IP injection of xylazine (10 mg/kg) and ketamine (100 mg/kg) and 25 µl of a rAAV2/1 CMV SGCA HY viral preparation containing 2.5.10^9 vg is injected in the left tibialis anterior muscle (TA). Controls are injected with PBS. […] Spleens are harvested to analyze transgene-specific T cell response.
Spleens are harvested to analyze the cellular immune anti-transgene response by T-cell cytokine response assay. Multiscreen-HA Assay System 96-well Filtration plates (Merck) are coated overnight with 2.5 µg/ml of anti-mouse IFN-γ purified mAb (eBiosciences) at 4°C, washed, and then blocked with RPMI 1640 medium (Life Technologies, Saint-Aubin, France) supplemented with 10% heat inactivated fetal bovine serum (FCS), 100U/ml penicillin/streptomycin (Thermo Fisher Scientific) and 2mM GlutaMAXTM-I (Life technologies) for 2 hours at 37°C. Plates are washed three times with RPMI 1640 medium without FCS. […] Spots are counted using an AID reader (Ceipheid Benelux, Louven, Belgium). Spot forming units (SFU) per million cells for each mouse are calculated as the average value of duplicate measures after subtraction of background values obtained with in vitro unstimulated splenocytes.

CD4 = assay: Time-lapse microscopy of CD4 cell surface fluorescence; assay type: cell-based, murine; conditions: time lapse for 4 hours, 400 µM, vs control
Procedure: Murine splenic CD4^+ T cells are first stained with CFSE, according to the manufacturer's recommendations (Invitrogen), and then with rat anti-mouse CD4-APC (RM4-5, BD Biosciences) mAb. After staining, cells are incubated in Ibidi's µ-chambers culture dish (Ibidi, Nanterre, France) in the thermo-regulated chamber of the Zeiss Axiovert 100 M confocal microscope. A time lapse acquisition is performed with a delay of 120 sec between frames. Each frame is illuminated using a 488 nm and 633 nm lasers, and fluorescence collected using 505-580 nm and 644-719 nm filters. The magnification is 40x/1.3 oil and images are saved as 8bits. The image stack is splitted using ImageJ-1.43, and images analyzed using CellProfiler 2.0.10415. The cell segmentation is performed on the CFSE fluorescence, and the fluorescence of the CD4 staining analyzed using the R software. Intensity is normalized to the maximum fluorescence measured at T0 for each condition.

[2] = eight days post vector injection

SMILES: O=C(O)c1ccc(-c2c3nc(c(-c4ccc(C(=O)O)cc4)c4ccc([n-]4)c(-c4ccc(C(=O)O)cc4)c4nc(c(-c5ccc(C(=O)O)cc5)c5ccc2[n-]5)C=C4)C=C3)cc1.[Mn+3] [MnTBAP, manganese [III] tetrakis (4-benzoic acid) porphyrin]
- level of mSeap in the serum (rAAV1 CMV mSeap vector; 93 days after vector readministration, vs control mice): significantly increased
- histochemical detection of mSeap in muscle (rAAV1 CMV mSeap vector; injected TA harvested 93 days after vector readministration): detection of the reporter gene mSeap
- normalized copy number of the readministered rAAV (rAAV1 CMV mSeap vector; injected TA, CMV PCR normalized to titin, vs control mice): significantly increased
- IFN-γ response of transgene specific CD4^+ T cells [1, 2]: significantly decreased
- IFN-γ response of transgene specific CD8^+ T cells [1, 2]: no significant differences
- IFN-γ response of transgene specific CD8^+ T cells ([1]; fifteen days post vector injection): significantly decreased
- CD4 cell surface fluorescence over time (CD4): CD4 declines on CD4^+ T cells
